Reference: US6579718B1, “Carbazolylvinyl dye protein stains” (Molecular Probes, Inc., priority 2000, dated 2003)

System: broad-range protein molecular weight markers
Experiment: Staining of broad-range molecular weight protein standards in SDS-polyacrylamide gels (Example 22, FIG. 2, 3)
Experimental: (§1) FIG. 2: Intensity profile comparison after staining broad-range protein molecular weight markers with SYPRO Orange dye in 7% acetic acid and phosohate-buffered saline. FIG. 2A.) Profile obtained with SYPRO Orange dye in 7% acetic acid. FIG. 2B.) Profile obtained with SYPRO Orange dye in 50 mM sodium phosphate, 150 mM sodium chloride, pH 7.0. Grey scale values of the fluorescence signals were inverted prior to obtaining the traces to facilitate evaluation of the peaks.
as §1, with “3:” for “2:”, “Compound 9” for “SYPRO Orange dye”, “phosphate-buffered” for “phosohate-buffered”, “3A.)” for “2A.)”, “3B.)” for “2B.)”
SDS-polyacrylamide gel electrophoresis is performed by standard methods utilizing 4% T, 2.6% C stacking gels, pH 6.8 and 15% T, 2.6% C separating gels, pH 8.8. % T is the total monomer concentration expressed in grams per 100 mL and % C is the percentage crosslinker. A staining solution of Compound 9 is prepared by diluting a stock solution that 5 is […] dye in DMSO in either 7.5% acetic acid or 50 mM Na2HPO4, 150 mM NaCl, pH 7.0 with vigorous mixing. Alternatively, a wide range of buffers are compatible with staining, including but not limited to formate, pH 4.0; citrate, pH 4.5; acetate, pH 5.0; MES, pH 6.0;
imidazole, pH 7.0; HEPES, pH 7.5; Tris acetate, pH 8.0; Tris-HCl, pH 8.5; Tris borate, 20 mM EDTA, pH 9.0; and bicarbonate, pH 10.0. Buffers should be prepared as 50-100 mM 10 solutions containing about 150 mM NaCl. Approximately 50-75 mL of staining solution is used for a typical mini-gel (5 cm×9 cm×1 mm). The gel is placed into the staining solution and the container is covered with aluminum foil to protect the dye from bright light. The gel is gently agitated for at least 30 minutes at room temperature using an orbital shaker (50:RPM). After staining, the gel is briefly dipped in water and visualized on a UV light box. […] As little as 1 ng of protein may be visualized when the fluorescent image is recorded by photography using a cellophane 490-nm long pass filter. […] In the latter buffer, protein bands are barely detectable above background fluorescence with these latter dyes.

## CCn1c2ccccc2c2cc(/C=C/c3cc[n+](CCCCS(=O)(=O)[O-])c4ccccc34)ccc21 [Compound 9]
7% acetic acid
  Brightness of protein band staining: as brightly as SYPRO Orange dye
SDS-polyacrylamide gel, photography with 490-nm long pass filter
  Amount of protein that may be visualized (detection sensitivity): 1 ng
phosphate-buffered saline
  Brightness of protein staining compared with SYPRO Orange dye: much more brightly
Regardless of the buffer
  Appearance of stained proteins on UV light box: bright orange bands
